Experiments:
Test in all cases: scanMAX KINOMEscan (Eurofins)
Format in all cases: binding
ACVRL1 = ACVRL1 (Homo sapiens, UniProt P37023); settings: 1000 nM, read-out: Percent Control
From the text: (§1) Supplement cb5c00097_si_002.xlsx, sheet "Table S6 (Eurofins Selectivity)" | column: Percent Control

ALK = ALK (Homo sapiens, UniProt Q9UM73); settings: read-out: Percent Control
From the text: as §1

AURKC = AURKC (Homo sapiens, UniProt Q9UQB9); settings: 1000 nM, read-out: Percent Control
From the text: as §1

BRSK1 = BRSK1 (Homo sapiens, UniProt Q8TDC3); settings: 1000 nM, read-out: Percent Control
From the text: as §1

CDK2 = CDK2 (Homo sapiens, UniProt P24941); settings: 1000 nM, read-out: Percent Control
From the text: as §1

CDK4-cyclinD1 = CDK4-cyclinD1 (Homo sapiens, UniProt P11802); settings: 1000 nM, read-out: Percent Control
From the text: as §1

CDK8 = CDK8 (Homo sapiens, UniProt P49336); settings: 1000 nM, read-out: Percent Control
From the text: as §1

CHEK2 = CHEK2 (Homo sapiens, UniProt O96017); settings: read-out: Percent Control
From the text: as §1

CSNK1A1L = CSNK1A1L (Homo sapiens, UniProt Q8N752); settings: 1000 nM, read-out: Percent Control
From the text: as §1

CSNK2A2 = CSNK2A2 (Homo sapiens, UniProt P19784); settings: 1000 nM, read-out: Percent Control
From the text: as §1

EPHA7 = EPHA7 (Homo sapiens, UniProt Q15375); settings: read-out: Percent Control
From the text: as §1

EPHB1 = EPHB1 (Homo sapiens, UniProt P54762); settings: 1000 nM, read-out: Percent Control
From the text: as §1

EPHB6 = EPHB6 (Homo sapiens, UniProt O15197); settings: 1000 nM, read-out: Percent Control
From the text: as §1

FGFR3 = FGFR3 (Homo sapiens, UniProt P22607); settings: read-out: Percent Control
From the text: as §1

FLT4 = FLT4 (Homo sapiens, UniProt P35916); settings: 1000 nM, read-out: Percent Control
From the text: as §1

[1] = target: JAK1(JH1domain-catalytic) (Homo sapiens, UniProt P23458); settings: 1000 nM, read-out: Percent Control
From the text: as §1

LZK = LZK (Homo sapiens, UniProt O43283); settings: 1000 nM, read-out: Percent Control
From the text: as §1

MAP3K15 = MAP3K15 (Homo sapiens, UniProt Q6ZN16); settings: compound concentration 100 nM; Entrez MAP3K15; read-out: Percent Control
From the text: as §1

MAP3K3 = MAP3K3 (Homo sapiens, UniProt Q99759); settings: 1000 nM, read-out: Percent Control
From the text: as §1

MARK1 = MARK1 (Homo sapiens, UniProt Q9P0L2); settings: compound concentration 100 nM; Entrez MARK1; read-out: Percent Control
From the text: as §1

MEK3 = MEK3 (Homo sapiens, UniProt P46734); settings: 1000 nM, read-out: Percent Control
From the text: as §1

PAK7 = PAK7 (Homo sapiens, UniProt Q9P286); settings: 1000 nM, read-out: Percent Control
From the text: as §1

PHKG1 = PHKG1 (Homo sapiens, UniProt Q16816); settings: 1000 nM, read-out: Percent Control
From the text: as §1

PIK3CG = PIK3CG (Homo sapiens, UniProt P48736); settings: 1000 nM, read-out: Percent Control
From the text: as §1

PLK4 = PLK4 (Homo sapiens, UniProt O00444); settings: 1000 nM, read-out: Percent Control
From the text: as §1

PRP4 = PRP4 (Homo sapiens, UniProt Q13523); settings: compound concentration 100 nM; Entrez PRPF4B; read-out: Percent Control
From the text: as §1

RAF1 = RAF1 (Homo sapiens, UniProt P04049); settings: compound concentration 100 nM; Entrez RAF1; read-out: Percent Control
From the text: as §1

RIPK5 = RIPK5 (Homo sapiens, UniProt Q6XUX3); settings: compound concentration 100 nM; Entrez DSTYK; read-out: Percent Control
From the text: as §1

[2] = target: RSK2(Kin.Dom.2-C-terminal) (Homo sapiens, UniProt P51812); settings: 1000 nM, read-out: Percent Control
From the text: as §1

S6K1 = S6K1 (Homo sapiens, UniProt P23443); settings: compound concentration 100 nM; Entrez RPS6KB1; read-out: Percent Control
From the text: as §1

SGK3 = SGK3 (Homo sapiens, UniProt Q96BR1); settings: 1000 nM, read-out: Percent Control
From the text: as §1

SRPK2 = SRPK2 (Homo sapiens, UniProt P78362); settings: compound concentration 100 nM; Entrez SRPK2; read-out: Percent Control
From the text: as §1

TEC = TEC (Homo sapiens, UniProt P42680); settings: compound concentration 100 nM; Entrez TEC; read-out: Percent Control
From the text: as §1

TXK = TXK (Homo sapiens, UniProt P42681); settings: 1000 nM, read-out: Percent Control
From the text: as §1

YANK3 = YANK3 (Homo sapiens, UniProt Q86UX6); settings: 1000 nM, read-out: Percent Control
From the text: as §1

YSK1 = YSK1 (Homo sapiens, UniProt O00506); settings: compound concentration 100 nM; Entrez STK25; read-out: Percent Control
From the text: as §1

EPHA7, sequence (Q15375 28-998): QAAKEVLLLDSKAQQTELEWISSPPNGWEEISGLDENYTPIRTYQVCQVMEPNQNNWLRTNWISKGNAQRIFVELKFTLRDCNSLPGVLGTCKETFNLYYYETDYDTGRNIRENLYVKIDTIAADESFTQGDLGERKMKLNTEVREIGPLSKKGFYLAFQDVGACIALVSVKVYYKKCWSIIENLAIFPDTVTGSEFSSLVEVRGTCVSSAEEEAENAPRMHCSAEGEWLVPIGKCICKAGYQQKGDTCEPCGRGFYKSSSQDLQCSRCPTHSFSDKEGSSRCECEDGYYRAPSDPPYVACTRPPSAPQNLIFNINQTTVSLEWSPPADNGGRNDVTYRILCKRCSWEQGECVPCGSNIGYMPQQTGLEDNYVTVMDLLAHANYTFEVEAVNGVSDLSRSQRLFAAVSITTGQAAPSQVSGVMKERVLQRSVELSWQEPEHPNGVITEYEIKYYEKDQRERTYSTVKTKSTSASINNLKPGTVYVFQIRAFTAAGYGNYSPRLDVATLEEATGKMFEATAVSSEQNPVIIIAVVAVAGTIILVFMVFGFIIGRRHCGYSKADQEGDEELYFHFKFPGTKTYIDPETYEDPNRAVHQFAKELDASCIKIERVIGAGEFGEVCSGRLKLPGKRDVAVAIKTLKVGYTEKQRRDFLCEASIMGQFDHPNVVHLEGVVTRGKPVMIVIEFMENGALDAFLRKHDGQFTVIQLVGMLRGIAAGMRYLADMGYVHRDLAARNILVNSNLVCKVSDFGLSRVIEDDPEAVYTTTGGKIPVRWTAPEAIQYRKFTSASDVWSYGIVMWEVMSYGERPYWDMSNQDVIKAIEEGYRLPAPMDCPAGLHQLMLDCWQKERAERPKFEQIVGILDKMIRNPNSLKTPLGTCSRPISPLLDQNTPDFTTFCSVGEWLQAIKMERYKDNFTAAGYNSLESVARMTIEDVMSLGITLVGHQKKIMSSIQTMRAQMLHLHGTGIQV
FGFR3, sequence (P22607 23-806): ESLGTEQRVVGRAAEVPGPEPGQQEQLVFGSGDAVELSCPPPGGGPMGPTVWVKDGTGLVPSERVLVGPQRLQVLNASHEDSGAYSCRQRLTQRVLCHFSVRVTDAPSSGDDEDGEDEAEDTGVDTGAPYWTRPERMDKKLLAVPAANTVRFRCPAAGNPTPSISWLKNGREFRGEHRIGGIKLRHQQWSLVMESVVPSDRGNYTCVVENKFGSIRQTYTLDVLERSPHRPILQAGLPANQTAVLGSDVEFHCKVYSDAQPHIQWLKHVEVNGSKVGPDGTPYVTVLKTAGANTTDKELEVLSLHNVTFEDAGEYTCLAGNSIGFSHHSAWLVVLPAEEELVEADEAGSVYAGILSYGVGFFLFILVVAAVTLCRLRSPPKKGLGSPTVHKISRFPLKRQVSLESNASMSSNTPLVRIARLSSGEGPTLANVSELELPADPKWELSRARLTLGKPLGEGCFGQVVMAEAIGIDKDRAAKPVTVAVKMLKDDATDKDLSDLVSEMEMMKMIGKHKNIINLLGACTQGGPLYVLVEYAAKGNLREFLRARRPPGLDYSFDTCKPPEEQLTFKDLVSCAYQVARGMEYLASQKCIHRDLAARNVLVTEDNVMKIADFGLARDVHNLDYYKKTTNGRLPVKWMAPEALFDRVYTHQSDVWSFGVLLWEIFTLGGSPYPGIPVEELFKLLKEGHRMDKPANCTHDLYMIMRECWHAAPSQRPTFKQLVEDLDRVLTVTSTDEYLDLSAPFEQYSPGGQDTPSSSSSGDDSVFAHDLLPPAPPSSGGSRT
CHEK2, sequence (O96017 whole entry): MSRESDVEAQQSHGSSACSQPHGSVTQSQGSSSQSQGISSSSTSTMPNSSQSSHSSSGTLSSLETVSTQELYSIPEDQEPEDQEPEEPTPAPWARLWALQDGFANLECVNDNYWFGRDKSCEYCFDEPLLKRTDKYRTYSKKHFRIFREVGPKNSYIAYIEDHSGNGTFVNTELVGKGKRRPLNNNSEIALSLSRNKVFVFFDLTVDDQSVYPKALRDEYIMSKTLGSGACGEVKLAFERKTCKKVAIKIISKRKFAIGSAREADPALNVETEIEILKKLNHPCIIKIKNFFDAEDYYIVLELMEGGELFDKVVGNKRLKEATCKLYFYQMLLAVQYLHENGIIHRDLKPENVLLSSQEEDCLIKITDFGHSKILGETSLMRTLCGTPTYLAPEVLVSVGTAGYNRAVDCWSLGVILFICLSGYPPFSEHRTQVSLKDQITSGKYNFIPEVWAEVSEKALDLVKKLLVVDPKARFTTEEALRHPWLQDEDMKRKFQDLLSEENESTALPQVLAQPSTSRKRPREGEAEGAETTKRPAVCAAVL
ALK, sequence (Q9UM73 19-1620): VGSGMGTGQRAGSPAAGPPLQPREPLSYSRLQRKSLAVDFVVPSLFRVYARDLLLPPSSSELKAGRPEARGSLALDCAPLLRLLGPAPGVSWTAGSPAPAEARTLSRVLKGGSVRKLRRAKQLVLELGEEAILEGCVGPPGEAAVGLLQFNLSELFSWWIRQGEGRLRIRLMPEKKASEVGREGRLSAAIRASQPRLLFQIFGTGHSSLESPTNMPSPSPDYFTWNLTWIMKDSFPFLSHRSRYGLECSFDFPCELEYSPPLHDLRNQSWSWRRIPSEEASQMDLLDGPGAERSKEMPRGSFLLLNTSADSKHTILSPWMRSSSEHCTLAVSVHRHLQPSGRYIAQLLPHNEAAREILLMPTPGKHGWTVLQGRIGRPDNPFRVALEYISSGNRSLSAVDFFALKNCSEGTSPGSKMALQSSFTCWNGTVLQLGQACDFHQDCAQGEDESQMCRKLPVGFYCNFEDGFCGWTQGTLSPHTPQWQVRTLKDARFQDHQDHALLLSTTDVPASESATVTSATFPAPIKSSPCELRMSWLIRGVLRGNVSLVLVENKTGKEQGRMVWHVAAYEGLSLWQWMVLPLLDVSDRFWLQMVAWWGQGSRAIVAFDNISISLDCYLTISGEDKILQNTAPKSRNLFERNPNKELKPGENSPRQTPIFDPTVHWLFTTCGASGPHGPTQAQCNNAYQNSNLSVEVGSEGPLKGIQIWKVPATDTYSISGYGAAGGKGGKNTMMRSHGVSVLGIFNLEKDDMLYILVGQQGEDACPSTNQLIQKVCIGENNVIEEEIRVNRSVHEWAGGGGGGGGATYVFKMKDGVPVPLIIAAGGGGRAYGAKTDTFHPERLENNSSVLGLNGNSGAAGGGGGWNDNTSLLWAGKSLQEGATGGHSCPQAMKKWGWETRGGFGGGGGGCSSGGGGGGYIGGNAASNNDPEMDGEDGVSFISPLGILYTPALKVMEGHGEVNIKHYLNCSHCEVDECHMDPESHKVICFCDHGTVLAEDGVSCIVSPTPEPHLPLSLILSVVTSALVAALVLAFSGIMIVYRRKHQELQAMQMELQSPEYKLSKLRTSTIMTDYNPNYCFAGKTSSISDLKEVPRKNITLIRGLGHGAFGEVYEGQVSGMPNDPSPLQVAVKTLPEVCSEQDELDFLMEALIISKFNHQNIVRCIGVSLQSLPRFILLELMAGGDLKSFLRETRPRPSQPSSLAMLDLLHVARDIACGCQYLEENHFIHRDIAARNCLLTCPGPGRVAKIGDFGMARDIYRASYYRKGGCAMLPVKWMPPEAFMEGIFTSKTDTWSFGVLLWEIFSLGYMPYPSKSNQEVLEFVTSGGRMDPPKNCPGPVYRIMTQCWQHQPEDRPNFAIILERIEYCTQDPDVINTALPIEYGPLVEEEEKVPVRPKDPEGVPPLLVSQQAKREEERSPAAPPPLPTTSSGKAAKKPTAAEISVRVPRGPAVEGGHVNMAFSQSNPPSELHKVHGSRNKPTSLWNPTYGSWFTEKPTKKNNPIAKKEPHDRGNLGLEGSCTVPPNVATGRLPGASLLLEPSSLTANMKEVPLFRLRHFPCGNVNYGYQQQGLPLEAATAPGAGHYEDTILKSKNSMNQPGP
PHKG1, sequence (Q16816 whole entry): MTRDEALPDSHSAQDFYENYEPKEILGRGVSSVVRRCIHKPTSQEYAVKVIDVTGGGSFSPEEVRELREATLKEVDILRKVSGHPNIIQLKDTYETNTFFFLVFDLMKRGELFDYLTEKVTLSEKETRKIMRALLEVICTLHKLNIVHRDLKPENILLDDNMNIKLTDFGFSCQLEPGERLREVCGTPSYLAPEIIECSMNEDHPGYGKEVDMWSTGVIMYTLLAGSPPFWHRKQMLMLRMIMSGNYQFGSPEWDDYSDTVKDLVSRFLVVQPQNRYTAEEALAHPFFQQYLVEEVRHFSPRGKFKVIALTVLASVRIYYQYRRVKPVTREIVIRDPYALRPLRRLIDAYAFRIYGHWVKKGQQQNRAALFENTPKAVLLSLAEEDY
YANK3, sequence (Q86UX6 whole entry): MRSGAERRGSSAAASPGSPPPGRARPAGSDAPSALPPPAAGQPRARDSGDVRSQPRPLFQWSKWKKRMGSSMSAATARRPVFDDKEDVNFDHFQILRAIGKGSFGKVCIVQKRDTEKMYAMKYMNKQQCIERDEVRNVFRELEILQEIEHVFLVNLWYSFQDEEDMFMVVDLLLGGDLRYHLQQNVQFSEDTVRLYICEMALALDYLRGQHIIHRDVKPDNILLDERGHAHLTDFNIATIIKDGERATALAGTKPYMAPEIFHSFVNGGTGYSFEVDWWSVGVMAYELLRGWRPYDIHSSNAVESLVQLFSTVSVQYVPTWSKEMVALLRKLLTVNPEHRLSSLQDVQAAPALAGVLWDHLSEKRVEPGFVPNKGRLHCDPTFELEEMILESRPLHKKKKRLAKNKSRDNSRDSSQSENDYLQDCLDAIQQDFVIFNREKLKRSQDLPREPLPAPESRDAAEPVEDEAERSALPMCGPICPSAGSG
JAK1(JH1domain-catalytic), sequence (P23458 866-1154): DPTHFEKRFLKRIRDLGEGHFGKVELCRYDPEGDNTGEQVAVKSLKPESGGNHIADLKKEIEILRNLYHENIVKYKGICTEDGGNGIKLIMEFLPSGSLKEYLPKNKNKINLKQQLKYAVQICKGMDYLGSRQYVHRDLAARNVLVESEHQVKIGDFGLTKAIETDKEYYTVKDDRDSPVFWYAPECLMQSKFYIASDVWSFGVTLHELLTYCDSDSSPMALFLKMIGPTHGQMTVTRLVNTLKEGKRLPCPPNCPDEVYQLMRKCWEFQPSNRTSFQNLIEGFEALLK

## CN1C(=O)[C@@H](N2CCc3c(nn(Cc4ccccc4)c3C(N)=O)C2=O)COc2cc(Cl)ccc21 [Compound 10, (S)-2-benzyl-6-(8-chloro-5-methyl-4-oxo-2,3,4,5-tetrahydrobenzo[b][1,4]oxazepin-3-yl)-7-oxo-4,5,6,7-tetrahydro-2H-pyrazolo[3,4-c]pyridine-3-carboxamide]
ACVRL1
  remaining binding at 1 µM: 91%
ALK; 1000 nM
  remaining binding at 1 µM: 100%
ALK; compound concentration 100 nM, Entrez ALK
  remaining binding at 0.1 µM: 84%
AURKC
  remaining binding at 1 µM: 90%
BRSK1
  remaining binding at 1 µM: 85%
CDK2
  remaining binding at 1 µM: 92%
CDK4-cyclinD1
  remaining binding at 1 µM: 72%
CDK8
  remaining binding at 1 µM: 92%
CHEK2; 1000 nM
  remaining binding at 1 µM: 100%
CHEK2; compound concentration 100 nM, Entrez CHEK2
  remaining binding at 0.1 µM: 100%
CSNK1A1L
  remaining binding at 1 µM: 85%
CSNK2A2
  remaining binding at 1 µM: 88%
EPHA7; 1000 nM
  remaining binding at 1 µM: 100%
EPHA7; compound concentration 100 nM, Entrez EPHA7
  remaining binding at 0.1 µM: 91%
EPHB1
  remaining binding at 1 µM: 94%
EPHB6
  remaining binding at 1 µM: 94%
FGFR3; 1000 nM
  remaining binding at 1 µM: 100%
FGFR3; compound concentration 100 nM, Entrez FGFR3
  remaining binding at 0.1 µM: 100%
FLT4
  remaining binding at 1 µM: 92%
[1]
  remaining binding at 1 µM: 89%
LZK
  remaining binding at 1 µM: 67%
MAP3K15
  remaining binding at 0.1 µM: 71%
MAP3K3
  remaining binding at 1 µM: 94%
MARK1
  remaining binding at 0.1 µM: 76%
MEK3
  remaining binding at 1 µM: 97%
PAK7
  remaining binding at 1 µM: 91%
PHKG1
  remaining binding at 1 µM: 93%
PIK3CG
  remaining binding at 1 µM: 90%
PLK4
  remaining binding at 1 µM: 82%
PRP4
  remaining binding at 0.1 µM: 67%
RAF1
  remaining binding at 0.1 µM: 100%
RIPK5
  remaining binding at 0.1 µM: 91%
[2]
  remaining binding at 1 µM: 88%
S6K1
  remaining binding at 0.1 µM: 76%
SGK3
  remaining binding at 1 µM: 90%
SRPK2
  remaining binding at 0.1 µM: 100%
TEC
  remaining binding at 0.1 µM: 86%
TXK
  remaining binding at 1 µM: 86%
YANK3
  remaining binding at 1 µM: 92%
YSK1
  remaining binding at 0.1 µM: 97%

From paper PMC12090182, “Repurposing of the RIPK1-Selective Benzo[1,4]oxazepin-4-one Scaffold for the Development of a Type III LIMK1/2 Inhibitor” (ACS Chemical Biology, 2025)
